Structures can show the parent of a compound that is named as a salt. Where two headings read alike, the source gives them in different places.
Assays:
[1] = RP-HPLC retention time used to determine hydrophobicity; format: physicochemical; conditions: analytical RP-HPLC, C18 Sunfire column (4.6 mm × 150 mm, 3.5 μm); A = 0.05% TFA in water, B = acetonitrile; 10% to 100% B in 20 min then isocratic 100% B 10 min; 217 and 254 nm; used as measure of hydrophobicity
Description: The purity of the lipopeptides was checked by analytical RP-HPLC on an Agilent Infinity instrument equipped with a Diode Array and a C18 Sunfire column (4.6 mm × 150 mm, 3.5 μm). As mobile phase A:B mixtures were used, where A = 0.05% TFA in water and B = acetonitrile. The samples were analyzed at 217 and 254 nm in a gradient from 10% of B to 100% of B in 20 min followed by isocratic 100% of B in 10 min.
Retention times were used to determine the hydrophobicity ([Neubauer et al., 2020]). HRMS (EI+) was carried out in an Agilent 6,520 Accurate-Mass Q-TOF LC/MS spectrometer using water/acetonitrile mixtures. Results can be found in Supplementary Section S3, S4.

[2] = system: human lung carcinoma epithelial cells A549; format: cell-based
Description: (§1) DICAM’s cytotoxicity was determined employing a modified MTT assay as described elsewhere ([Antúnez-Mojica et al., 2016]) using human lung carcinoma epithelial cells A549, human fetal lung fibroblasts IMR-90, and human HeLa cervix carcinoma cells treated with increasing concentrations of DICAMs (0.8–200 µM range). A549 cells were grown in RPMI 1640 (Gibco; Fisher Scientific, Spain) supplemented with 10% FCS, 2 mM glutamine, 100 IU/mL penicillin and 100 μg/mL streptomycin. IMR-90 and HeLa cells were cultured in DMEM (Gibco; Fisher Scientific, Spain) supplemented with 10% FCS, 2 mM L-glutamine, 1 mM pyruvate, […] penicillin, 100 μg/mL streptomycin and 40 μg/mL gentamycin. Cell viability was assessed after 48 h exposure to DICAMs. Vinblastine was used as a positive control. IC50 value is the concentration that gives 50% inhibition of cell growth and was determined using SigmaPlot (Systat) fitting to a Four Parameter Logistic curve.

[3] = system: human HeLa cervix carcinoma cells; format: cell-based
Description: as §1

[4] = system: Pseudomonas aeruginosa PAO1; assay: Growth inhibition screening of planktonic cultures (OD550/600); format: cell-based; design: key: (+++) full inhibition; (++) partial inhibition; (+) growth retardation; -: (−) no effect; conditions: P. aeruginosa PAO1, 50 and 100 μM compound added at T1, OD550/600 followed 10 h, 37°C
Summary of the method: (§2)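 Early exponential-phase cultures (OD550/600 c. a. 0.15–0.2) were treated with DICAMs at 50 and 100 μM final, diluted from DMSO stocks into medium, and incubated 10 h at 37°C. Turbidity (OD550/600) was read every 20 min against untreated controls to track growth inhibition and lysis.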

Staphylococcus aureus T = assay: as above; format: cell-based; design: key: (+++) full inhibition; (++) partial inhibition; (+) growth retardation; -: (−) no effect; conditions: S. aureus T, 50 and 100 μM compound added at T1, OD550/600 followed 10 h, 37°C
Summary of the method: as §2

Escherichia coli DH10B = assay: as above; format: cell-based; design: key: (+++) full inhibition; (++) partial inhibition; (+) growth retardation; -: (−) no effect; conditions: E. coli DH10B, 50 and 100 μM compound added at T1, OD550/600 followed 10 h, 37°C
Summary of the method: as §2

| Compound | Retention time [1] [min] | IC50 ([2]; 48 h) [µM] | IC50 ([3]; 48 h) [µM] | Growth halt or lysis (50/100 μM), Pa [4] | Growth halt or lysis (50/100 μM), Sa T (Staphylococcus aureus T) | Growth halt or lysis (50/100 μM), Ec (Escherichia coli DH10B) | IC50 ([2]; modified MTT, 48 h exposure, 0.8–200 µM, four parameter logistic fit, ± SD, at least three independent experiments, read-out: IC50 A549) [µM] | IC50 ([3]; modified MTT, 48 h exposure, 0.8–200 µM, four parameter logistic fit, ± SD, at least three independent experiments, read-out: IC50 HeLa) [µM] |
| --- | --- | --- | --- | --- | --- | --- | --- | --- |
| CCCCCCCCCCCCCCCCCCNC(=O)[C@H](CCC(=O)O)NC(=O)[C@H]1CCCN1C(=O)[C@H](CC(N)=O)NC(=O)OCc1ccccc1 [DICAM 1, Cbz-Asn- Pro -Glu-NH-C18H37] | 21.41 | 45 ± 6 | 29 ± 2 | - |  |  |  |  |
| CCCCCCCCCCCCCCCCCCNC(=O)[C@H](CCC(=O)O)NC(=O)[C@H]1CCCN1C(=O)[C@@H](N)CC(N)=O [DICAM 2, Asn- Pro -Glu-NH-C18H37 ·HCl] | 12.14 | 42 ± 5 | 42 ± 2 | - | ++ | - |  |  |
| CCCCCCCCCCCCCCCCCCNC(=O)[C@H](CCC(=O)O)NC(=O)[C@H]1CCCN1C(=O)[C@H](C)NC(=O)OCc1ccccc1 [DICAM 3, Cbz-Ala- Pro -Glu-NH-C18H37] | 21.42 | 59.2 ± 0.7 | 49.2 ± 1.5 | - | - | - |  |  |
| CCCCCCCCCCCCCCCCCCNC(=O)[C@H](CCC(=O)O)NC(=O)[C@H]1CCCN1C(=O)[C@H](C)N [DICAM 4, Ala- Pro -Glu-NH-C18H37 ·HCl] | 19.24 | ≥ 25 | 32 ± 2 | - | ++ | - |  |  |
| CCCCCCCCCCCCCCCCNC(=O)[C@H](CCC(=O)O)NC(=O)[C@H]1CCCN1C(=O)[C@H](CC(N)=O)NC(=O)OCc1ccccc1 [DICAM 10, Cbz-Asn- Pro -Glu-NH-C16H33] | 18.23 | 35 ± 2 | 28 ± 0.7 | - |  |  |  |  |
| CCCCCCCCCCCCCCCCCCNC(=O)[C@H](C)NC(=O)[C@H]1CCCN1C(=O)[C@H](C)N [DICAM 14, Ala- Pro -Ala-NH-C18H37 · HCl] | 19.50 | 8 ± 0.3 | 6.3 ± 0.7 | - | +++ | - |  |  |
| CCCCCCCCCCCCCCCCCCNC(=O)[C@H](CCC(=O)O)NC(=O)[C@H]1CCCN1C(=O)[C@H](CCC(=O)O)NC(=O)OCc1ccccc1 [DICAM 19, Cbz-Glu- Pro -Glu-NH-C18H37] | 21.22 | 45 ± 2 | 46 ± 2 | - | + | - |  |  |
| CCCCCCCCCCCCCCCCCCNC(=O)[C@H](CCC(=O)O)NC(=O)[C@H]1CCCN1C(=O)[C@@H](N)CCC(=O)O [DICAM 20, Glu- Pro -Glu-NH-C18H37 · HCl] | 18.71 | 91 ± 2 | 59.2 ± 0.1 | - | ++ | - |  |  |
| CCCCCCCCCCCCCCCCCCNC(=O)[C@H](CCC(=O)O)NC(=O)[C@H]1CCCN1C(=O)[C@H](CCCN)NC(=O)OCc1ccccc1 [DICAM 21, Cbz-Orn- Pro -Glu-NH-C18H37] | 19.70 |  |  | - | + | - |  |  |
| CCCCCCCCCCCCCCCCCCNC(=O)[C@H](CCC(=O)O)NC(=O)[C@H]1CCCN1C(=O)[C@@H](N)CCCN [DICAM 22, Orn- Pro -Glu-NH-C18H37 · HCl] | 16.91 | 59.6 ± 0.9 | 57.2 ± 0.4 | - | + | - |  |  |
| CCCCCCCCCCCCCCCCCCNC(=O)[C@H](CCC(=O)O)NC(=O)[C@H]1CCCN1C(=O)[C@H](C)NC(C)=O [DICAM 24, Ac-Ala- Pro -Glu-NH-C18H37] | 21.23 | 40 ± 3 | 28.4 ± 0.2 |  | ++ | - |  |  |
| Ala - Pro -Glu-NH-C18H37 · HCl [DICAM 23] | 19.31 |  |  | - | ++ | - | 80.6 ± 0.2 | 13.4 ± 0.9 |
